Here are results for six compounds from patent US20230248660A1 (Intelgenx Corp., priority 2016, published 2023).

Series [1] deals with Porcine buccal mucosa. Kind of series: Loxapine diffusion through Porcine buccal mucosa (Franz cell). The settings on record: penetration enhancer in loxapine oral film, permeation through the mucosa. The protocol:
FIG. 1 graphically depicts 1 oxapine film diffusion through Porcine buccal mucosa (48-hrs-old unfrozen fresh mucosa) (Franz cell 1.76 cm2; 37° C.); saliva pH 6.8.
FIG. 2 graphically depicts 1 oxapine film diffusion through Porcine buccal mucosa (26-hrs-old unfrozen fresh mucosa) (Franz cell 1.76 cm2; 37° C.); saliva pH 6.8.
FIG. 3 graphically depicts 1 oxapine Solutions-diffusion through Porcine buccal mucosa (fresh mucosa kept at 4C for 48 hours) (Franz cell 1.76 cm2; 37° C.); saliva pH 6.8.
These penetration enhancers include sulphoxides (dimethylsulphoxide, decylmethyl sulfoxide), azones (laurocapram), pyrrolidones (2pyrrolidone, 2P), alcohols/alkanols (ethanol or decanol), glycols (propylene glycol), surfactants (anionic, sodium lauryl sulfate, sodium decyl sulfate), (Nonionic, Tween, PLE), (Cationic, chitosan, cetylpyridinium chloride), terpenes (1,8-cineole, menthol, and menthone, D-limonene), fatty acids (oleic acid, sodium caprate), and bile salts (sodium deoxycholate, sodium deoxyglycocholate).

For series [2] the following is noted: at or near neutral pH; cited from earlier work.

In the case of `C=C(C)[C@@H]1CC=C(C)CC1` [(S)-(−)-Limonene], the “Effect on loxapine absorption/permeation” value in series [1] is given as “positif effect (+)”.

As for `CCCCCCCCCCCCCCCC[n+]1ccccc1` [Cetylpyridinium chloride], in series [1], the “Effect on loxapine absorption/permeation” value was “no effect”.

As to `O=C(O)CN(CCN(CC(=O)O)CC(=O)O)CC(=O)O.[Ca].[Na].[Na]` [Ethylenediaminetetraacetic acid calcium disodium], the “Effect on loxapine absorption/permeation” value in series [1] was “no effect”.

As for `CCCCCCCCCCCCOS(=O)(=O)[O-].[Na+]` [Sodium lauryl sulphate (SLS), Sodium lauryl sulphate], the “Effect on loxapine absorption/permeation” value in series [1] (listed as SLS, sulphate) is listed as “reduce absorption/permeation”; in series [1] (sulphate), “negative effect(−)”.

As for `CN1CCN(C2=Nc3ccccc3Oc3ccc(Cl)cc32)CC1` [loxapine, 2-chloro-11-(4-methylpiperazin-1-yl) dibenzo[b,f] [1,4] loxazepine], the solubility of loxapine entry in series [2] is given as “especially low”.

Regarding Sodium deoxycholate, the “Effect on loxapine absorption/permeation” value in series [1] was “positif effect (+)”.
